The values that follow come from US20230174988A1, “METHODS FOR INDUCING BILE ACID SULFOTRANSFERASE SULT2A FOR TREATING METABOLIC DISORDERS” (priority 2020, published 2023).

The structures appear in SMILES notation. “Also recorded” adds a separate entry of the source. Like-named read-outs stand apart in the source and are kept apart here.

The test system of data set [1] is NCI-H716 cells. Put plainly: GLP-1 secretion in NCI-H716 cells in vitro. Type of data set: cell-based, human. Particulars: for GLP-1 secretion in vitro by CA7S extracted from cecal contents of SG mice: purified CA7S 500 μM vs DMSO. The text has this: TGR5 agonism also results in elevated intracellular calcium levels^19.
Data set [2] deals with NCI-H716 cells. The data set is described as follows: intracellular calcium levels in NCI-H716 cells. Type of data set: cell-based, human. The following applies: NCI-H716 (L-cells). A general note: Calcium flux is commonly read through the fluorescence of an indicator in the cells.
A short description of data set [3]: stability after incubation at 37° C. in buffer at physiological pHs (UPLC-MS). In kind it is physicochemical.
The next data set deals with Caco-2 cells. Put plainly: cell viability of Caco-2 cells. In kind it is cell-based, human. The following applies: concentrations up to 3 mM.
The test system of data set [4] is DIO mice. Put plainly: acute treatment of DIO mice via duodenal and rectal catheters: GLP-1 and blood glucose. Type of data set: in vivo, mouse. The following applies: HFD-fed (DIO) mice, 1 mg CA7S vs PBS, within 15 min.
A further data set has as its system macrophages. The data set is described as follows: IL-10 secretion from macrophages in vitro. Type of data set: cell-based.
For a further data set, the system named is NF-kB. The data set is described as follows: NF-kB reporter assay in THP1-Blue cells. The following applies: LPS-induced inflammation. In kind it is cell-based, human. In general terms: Reporter assays use an easily measured gene product as a stand-in for the process of interest.
In another data set the test system is macrophage. The data set is described as follows: macrophage cell viability. Type of data set: cell-based.
The nature of another data set: in vivo. Particulars: mouse, 1 mg.
Another data set relates to SULT2A1. The data set is described as follows: SULT2A1 expression in HepG2 cells (qRT-PCR). Type of data set: cell-based. The following applies: normalized to human GAPDH. In general terms: Quantitative PCR measures a nucleic acid by following its amplification.
The next data set addresses T1, TGR5 (Homo sapiens, UniProt Q8TDU6).
T1 sequence (Q8TDU6 1-330): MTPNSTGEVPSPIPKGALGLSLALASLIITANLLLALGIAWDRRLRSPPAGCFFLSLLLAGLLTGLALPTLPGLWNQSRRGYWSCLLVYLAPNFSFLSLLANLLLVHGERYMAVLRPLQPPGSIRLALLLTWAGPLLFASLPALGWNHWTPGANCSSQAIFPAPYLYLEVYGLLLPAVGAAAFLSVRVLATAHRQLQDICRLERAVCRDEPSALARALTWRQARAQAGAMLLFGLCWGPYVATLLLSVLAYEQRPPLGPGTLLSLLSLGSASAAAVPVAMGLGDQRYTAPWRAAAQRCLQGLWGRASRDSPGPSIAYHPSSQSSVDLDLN
Put plainly: relative TGR5 expression (FIG. 40). In kind it is cell-based. The source says:
FIG. 40B-D show the relative TGR5 expression of the various compounds.

Data set [5] concerns DIO mice. Put plainly: portal vein injection of LCA in DIO mice. Particulars: LCA 50 μM into portal vein. Type of data set: in vivo, mouse.
For the next data set, the system named is ASBT. The data set is described as follows: ASBT expression in Caco-2 cells. In kind it is cell-based, human. Details: dose or concentration left out as unconfirmed. Particulars: LCA.
The next data set concerns GF mice. The data set is described as follows: GF mice administered 0.3% LCA (w/w) in chow for 1 week. The following applies: 0.3% LCA in chow. In kind it is in vivo, mouse.
Where [6] appears, read: listed as Cholic acid 7-sulfate.
Setting [7] is: listed as cholic acid 7-sulfate.
Setting [8] is: HFD-fed mice, acute cholic acid 7-sulfate treatment.

Consider `C[C@H](CCC(=O)O)[C@H]1CC[C@H]2[C@@H]3[C@H](OS(=O)(=O)O)C[C@@H]4C[C@H](O)CC[C@]4(C)[C@H]3C[C@H](O)[C@]12C` [CA7S, cholic acid 7-sulfate], for which the “GLP-1 secretion in vitro” value is listed as “induced GLP-1 secretion to a similar degree as TDCA in a dose-dependent manner” with NCI-H716 cells [1] and “induces GLP-1 secretion in vitro better than the known GLP-1 inducer TDCA” in the data set with NCI-H716 cells [1] (setting [6]). Moreover, the “GLP-1 secretion in vitro by CA7S extracted from cecal contents of SG mice” value with NCI-H716 cells [1] is recorded as “induced GLP-1 secretion in vitro”; in the data set on NCI-H716 cells [1] (setting [7]), “exhibit activity inducing GLP-1 secretion in vitro”. In addition, the intracellular calcium levels result is listed as “dose-dependent increase in calcium levels” in the data set with NCI-H716 cells [2] and “increased calcium levels” in the data set with NCI-H716 cells [2] (setting [6]). Further, the “stability at physiological pHs” value in data set [3] is “stable at physiological pHs”; in data set [3] (setting [6]) it was “stable in a wide range of pHs”. The “toxicity / viability of intestinal Caco-2 cells” value in the data set on Caco-2 cells is “does not affect the viability”; in the data set with Caco-2 cells (setting [6]) it was “no toxicity”. Moreover, in the data set on DIO mice [4], the blood glucose levels entry is “reduced blood glucose levels”. Moreover, the entries for the “systemic GLP-1 levels” value with DIO mice [4] and in the data set with DIO mice [4] (setting [7]) were “increased systemic GLP-1 levels” and “induced GLP-1 levels”, respectively. Also, the IL-10 secretion entry with macrophages is “induces secretion of the anti-inflammatory cytokine IL-10”. For the same compound, the NFkB activation result in the data set with NF-kB is reported as “reduces NFkB activation”. The macrophage cell viability result in the data set on macrophage is “does not affect macrophage cell viability”. Besides, in “inflammation in vivo”, the inflammation in vivo result is reported as “improves inflammation in vivo”. Also, the “Cholic acid 7-sulfate concentration (mean ± SEM), Cecum” value under setting [8] was determined as 2577 ± 185.3 pmol/mg. Besides, the “Cholic acid 7-sulfate concentration (mean ± SEM), Hepatic portal vein” value under setting [8] worked out at 6.128 ± 2.111 pmol/mg. For the same compound, under “administration of 1 mg, on average”, the “CA7S in cecal contents” value was determined as 2500 pmol/mg wet mass. Also, where the note is “ectopic introduction in mice, listed as cholic acid 7-sulfate”, the “leak into systemic circulation and portal vein (gut restriction)” value is “only minor amounts”. Moreover, the concentration at 15 min is 0.495 ± 0.167 µM in the data set “in vivo” (Cholic acid 7-sulfate concentration (mean ± SEM), Blood, HFD-fed mice, acute cholic acid 7-sulfate treatment) and approximately 2500 µM in the data set “in vivo” (cholic acid 7-sulfate in the cecum, dosing with 1 mg).

In the case of `C[C@H](CCC(=O)O)[C@H]1CC[C@H]2[C@@H]3[C@H](O)C[C@@H]4C[C@H](O)CC[C@]4(C)[C@H]3C[C@H](O)[C@]12C` [CA, cholic acid, reference compound], the entries for the “GLP-1 secretion in vitro” value with NCI-H716 cells [1] and in the data set on NCI-H716 cells [1] (listed as cholic acid) were “had no effect on GLP-1 secretion” and “had no effect”, respectively. Moreover, the SULT2A1 expression result with SULT2A1 is listed as “did not induce SULT2A1 expression at all concentrations tested”.

As for `C[C@H](CCC(=O)O)[C@H]1CC[C@H]2[C@@H]3[C@H](O)C[C@@H]4C[C@H](O)CC[C@]4(C)[C@H]3CC[C@]12C` [CDCA, chenodeoxycholic acid], the SULT2A1 expression entry in the data set on SULT2A1 is reported as “did not induce SULT2A1 expression at all concentrations tested”.

On to `COC(=O)CC[C@@H](C)[C@H]1CC[C@H]2[C@@H]3[C@H](NS(=O)(=O)O)[C@@H](O[Si](C)(C)C(C)(C)C)[C@@H]4C[C@H](O[Si](C)(C)C(C)(C)C)CC[C@]4(C)[C@H]3CC[C@]12C` [Compound 3-8], for which the TGR5 expression entry on TGR5 is “induces TGR5 expression”.

On to `C[C@H](CCC(=O)O)[C@H]1CC[C@H]2[C@@H]3[C@H](OP(=O)(O)O)C[C@@H]4C[C@H](O)CC[C@]4(C)[C@H]3C[C@H](O)[C@]12C` [Compound 9, cholic acid-7-phosphate], for which the TGR5 expression entry on TGR5 is “induces TGR5 expression”.

For the compound `COC(=O)CC[C@@H](C)[C@H]1CC[C@H]2[C@@H]3[C@H](OP(=O)(OCc4ccccc4)OCc4ccccc4)C[C@@H]4C[C@H](O[Si](C)(C)C(C)(C)C)CC[C@]4(C)[C@H]3CC[C@]12C` [Compound 9-2], the TGR5 expression result on TGR5 is recorded as “induces TGR5 expression”.

Take `C[C@H](CCC(=O)O)[C@H]1CC[C@H]2[C@@H]3CC[C@@H]4C[C@H](O)CC[C@]4(C)[C@H]3CC[C@]12C` [LCA, 3α-hydroxy-5β-cholan-24-oic acid]: the SULT2A1 expression result with SULT2A1 is listed as “induced SULT2A1; also recorded: could induce SULT2A1 expression in a dose dependent manner”. Further, the “CA7S levels in the gallbladder” value with DIO mice [5] is on record as “increase in CA7S levels in the gallbladder”. Further, in the data set with DIO mice [5] (two hours after injection), the “SULT2A1 expression level in mouse liver” value is “significant increase” and the “VDR expression level in mouse liver” value is “significant increase”. The ASBT expression result in the data set with ASBT is given as “inhibited expression of ASBT”. In the data set with GF mice, the “Asbt expression in SI and DI” value is “inhibited expression of Asbt in SI and DI”; the “VDR expression in liver” value was “increased expression”; the “mSult2A1 expression in liver” value was “increased expression”. In the data set with GF mice (1 week), the “LCA levels in intestine after feeding” value was “accumulation of LCA in the proximal small intestine (SI), distal ileum (DI), and cecum”. Further, in the data set on GF mice (gallbladder and distal ileum), the “CA7S production and accumulation” value is “induced CA7S production and accumulation in the gallbladder (GB) and the DI”.

With `C[C@H](CCC(=O)NCCS(=O)(=O)O)[C@H]1CC[C@H]2[C@@H]3CC[C@@H]4C[C@H](O)CC[C@]4(C)[C@H]3C[C@H](O)[C@]12C` [TCDCA, taurodeoxycholic acid], the SULT2A1 expression entry with SULT2A1 was “did not induce SULT2A1 expression at all concentrations tested”.
